Measurements as given in patent publication US5463071A, “5-membered heterocyclic compounds, processes for preparing them and pharmaceutical compositions containing these compounds” (Dr. Karl Thomae GmbH, priority 1991, dated 1995).
pEC50, pIC50: −log10 of the molar value. Structures can show the parent of a compound that is named as a salt.

Key:
human thrombocytes = assay: Fibrinogen binding to human thrombocytes (125I fibrinogen, gel-filtered platelets); details: ADP, 20 minutes at ambient temperature, read-out: Fibrinogen-binding test IC50
Protocol: 1. Fibrinogen binding to human thrombocytes The blood obtained by puncturing an antecubital vein is anticoagulated with trisodium citrate (final concentration: 13 mM) and centrifuged for 10 minutes at 170×g. The supernatant platelet-rich plasma is poured onto a Sepharose 2B column (Pharmacia) and eluted with a solution of 90 mM common salt, 14 mM trisodium citrate, 5 mM glucose and 50 mM Tris(hydroxymethyl)aminomethane, adjusted to pH 7.4. The gel-filtered platelets (GFP) appearing before the plasma proteins are used for the binding experiments. 50 μl of a 60 mM calcium chloride solution, 50 μl of a 0.6 mM adenosine diphosphate solution, 100 μl of substance solution or solvent and 50 μl of fibrinogen solution (containing 3 μg of ^125 I fibrinogen) are added to 750 μl of GFP and incubated for 20 minutes at ambient temperature. The non-specific binding is determined in the presence of 3 mg/ml of cold fibrinogen. 900 μof the incubated material are carefully pipetted onto 250 μof silicon oil (AP 38: AR 20, 1:2 v/v, Wacker Chemie) in Eppendorf tubes and centrifuged for 2 minutes at 10,000×g. The aqueous supernatant and part of the oil are drawn off, the tips of the tubes are cut off together with the platelet pellet and the quantity of bound fibrinogen is determined in a gamma counter. The concentration of substance which brings about a 50% inhibition in fibrinogen binding is determined from a series of concentrations and is given as the IC50 value.

[1] = tested on: collagen-induced platelet aggregation in platelet-rich plasma; assay: Antithrombotic activity: inhibition of collagen-induced thrombocyte (platelet) aggregation, Born and Cross method; assay type: cell-based, healthy volunteers (human); details: Homo sapiens, 10 minutes preincubation at 37° C.
Protocol: 2. Antithrombotic activity Method The thrombocyte aggregation is measured using the Born and Cross method (J. Physiol. 170: 397 (1964)) in platelet-rich plasma taken from healthy volunteers. To inhibit coagulation the blood is mixed with 3.14% sodium citrate in a ratio by volume of 1:10. Collagen-induced aggregation The pattern of the decrease in optical density of the platelet suspension is photometrically measured and recorded after the addition of the aggregation-triggering substance. The rate of aggregation is concluded from the angle of inclination of the density curve. The point on the curve where there is maximum light transmittance is used to calculate the optical density. The amount of collagen used is as small as possible but sufficient to produce an irreversible reaction curve. Standard commercial collagen produced by Hormonchemie of Munich is used. Before the addition of the collagen the plasma is incubated for 10 minutes with the substance at 37° C. From the measurements obtained an EC50 is determined graphically, indicating a 50% change in the optical density in terms of the inhibition of aggregation.

[2] = Tolerance after intravenous administration to mice; assay type: in vivo; details: 30 mg/kg intravenous, three mice each

pIC50 (human thrombocytes)	pEC50 [1]	Structure (SMILES)	deaths after intravenous administration [2]
4.36	5.19	COC(=O)CCc1ccc(-c2nc(-c3ccc(C(=N)N)cc3)n[nH]2)cc1 [2(8), 3-(4-amidino-phenyl)-5-[4-(2-methoxycarbonyl-ethyl)-phenyl]-1,2,4-triazole]	–
6.68	6.24	N=C(N)c1ccc(-c2c[nH]c(-c3ccc(CCC(=O)O)cc3)n2)cc1 [1(7), 4-(4-amidino-phenyl)-2-[4-(2-carboxy-ethyl)-phenyl]-imidazole]	–
5.85	4.66	COC(=O)CCc1cc(C(=O)OC)c(-c2ccc(-c3ccc(C(=N)N)cc3)cc2)o1 [2(126), 2-(4-amidino-4'-biphenylyl)-3-methoxycarbonyl-5-(2-methoxycarbonyl-ethyl)-furan-hydrochloride]	–
7.60	7.05	Cn1cc(-c2ccc(C(=N)N)cc2)nc1-c1ccc(CCC(=O)O)cc1 [1(6), 4-(4-amidino-phenyl)-2-[4-(2-carboxy-ethyl)-phenyl]-1-methyl-imidazole]	–
5.21	5.21	COC(=O)CCc1cn(-c2ccc(-c3ccc(C(=N)N)cc3)nn2)c2ccccc12 [2(37), 1-[6-(4-amidino-phenyl)-3-pyridazinyl]-3-(2-methoxycarbonyl-ethyl)-indole]	–
5.74	–	COC(=O)CCc1ccc(-c2nc(-c3ccc(C(=N)NC(=O)OC)cc3)c[nH]2)cc1 [4(2), 4-(4-methoxycarbonylamidino-phenyl)-2-[4-(2-methoxycarbonyl-ethyl)-phenyl]-imidazole]	–
5.82	–	COC(=O)CCc1ccc(-c2nc(-c3ccc(C(=N)NC(=O)OC)cc3)cn2C)cc1 [4(1), 4-(4-methoxycarbonylamidino-phenyl)-2-[4-(2-methoxycarbonyl-ethyl)-phenyl]-1-methyl-imidazole]	–
5.38	5.07	N=C(N)c1ccc(-c2nnc(-c3ccc(CCC(=O)O)cc3)o2)cc1 [1(9), 2-(4-amidino-phenyl)-5-[4-(2-carboxy-ethyl)-phenyl]-1,3,4-oxadiazole]	–
6.85	5.80	COC(=O)CCc1ccc(-n2nnc(-c3ccc(C(=N)N)cc3)n2)cc1 [2(3), 5-(4-amidino-phenyl)-2-[4-(2-methoxycarbonyl-ethyl)-phenyl]-tetrazole-hydrochloride]	–
4.77	6.10	COC(=O)CCc1ccc(-c2nc(-c3ccc(C(=N)N)cc3)c[nH]2)cc1 [2(7), 4-(4-amidino-phenyl)-2-[4-(2-methoxycarbonyl-ethyl)-phenyl]-imidazole-hydrochloride]	–
5.31	6.55	COC(=O)CCc1nnc(-c2ccc(-c3ccc(C(=N)N)cc3)cc2)s1 [2(20), 2-(4-amidino-4'-biphenylyl)-5-(2-methoxycarbonyl-ethyl)-1,3,4-thiadiazole]	–
6.31	6.43	COC(=O)CCn1nnc(-c2ccc(-c3ccc(C(=N)N)cc3)cc2)n1 [2(4), 5-(4-amidino-4'-biphenylyl)-2-(2-methoxycarbonyl-ethyl)-tetrazole-hydrochloride]	–
5.37	6.68	COC(=O)CCc1ccc(-c2nc(-c3ccc(C(=N)N)cc3)cn2C)cc1 [2(6), 4-(4-amidino-phenyl)-2-[4-(2-methoxycarbonyl-ethyl)-phenyl]-1-methyl-imidazole-hydrochloride]	–
–	5.27	COC(=O)CSc1nc(-c2ccc(-c3ccc(C(=N)N)cc3)cc2)n[nH]1 [2(39), 3-(4-amidino-4'-biphenylyl)-5-methoxycarbonyl-methylthio-1,2,4-triazole]	–
–	6.66	COC(=O)CCc1ccc(-c2nnc(-c3ccc(C(=N)N)cc3)s2)cc1 [2(10), 2-(4-amidino-phenyl)-5-[4-(2-methoxycarbonyl-ethyl)-phenyl]-1,3,4-thiadiazole]	–
6.34	5.39	N=C(N)c1ccc(-c2n[nH]c(-c3ccc(CCC(=O)O)cc3)n2)cc1 [1(8), 3-(4-amidino-phenyl)-5-[4-(2-carboxy-ethyl)-phenyl]-1,2,4-triazole]	–
5.70	5.02	N=C(N)c1ccc(-c2nnc(-c3ccc(CCC(=O)O)cc3)s2)cc1 [1(10), 2-(4-amidino-phenyl)-5-[4-(2-carboxy-ethyl)-phenyl]-1,3,4-thiadiazole]	–
5.51	5.12	COC(=O)CCc1ccc(-c2nc(-c3ccc(C(=N)N)cc3)cs2)cc1 [2(5), 4-(4-amidino-phenyl)-2-[4-(2-methoxycarbonyl-ethyl)-phenyl]-thiazole-hydrochloride]	–

Further lines, the compound ahead of its results:

Structure (SMILES)	pIC50 (human thrombocytes)	pEC50 [1]	deaths after intravenous administration [2]
NCc1ccc(-c2ccc(-n3cnc(CC(N)C(=O)O)c3)nn2)cc1 (stereo not drawn) [1(134), 4-(2-amino-2-carboxy-ethyl)-1-[6-(4-aminomethyl-phenyl)-3-pyridazinyl]-imidazole-dihydrochloride]	6.34	6.29	–
Cl.N=C(N)c1ccc(-c2ccc(-n3cnc(CC(N)C(=O)O)c3)nn2)cc1 (stereo not drawn) [1(2), 1-[6-(4-amidino-phenyl)-3-pyridazinyl]-4-(2-amino-2-carboxy-ethyl)-imidazole-hydrochloride]	7.74	7.05	no animals died
COC(=O)C(N)Cc1cn(-c2ccc(-c3ccc(C(=N)N)cc3)nn2)cn1 (stereo not drawn) [2(2), 1-[6-(4-amidino-phenyl)-3-pyridazinyl]-4-(2-amino-2-methoxycarbonyl-ethyl)-imidazole-tris-trifluoroacetate]	6.47	6.46	–
N=C(N)c1ccc(-c2ccc(-c3nnn(CCC(=O)O)n3)cc2)cc1 [1(4), 5-(4-amidino-4'-biphenylyl)-2-(2-carboxy-ethyl)-tetrazole]	7.36	6.54	–
N=C(N)c1ccc(-c2ccc(-c3oc(CCC(=O)O)cc3C(=O)O)cc2)cc1 [1(128), 2-(4-amidino-4'-biphenyl)-3-carboxy-5-(2-carboxy-ethyl)-furan]	5.46	5.05	–
N=C(N)c1ccc(-c2nnn(-c3ccc(CCC(=O)O)cc3)n2)cc1 [1(3), 5-(4-amidino-phenyl)-2-[4-(2-carboxy-ethyl)-phenyl]-tetrazole]	6.66	4.96	–
COC(=O)CCc1cn(-c2ccc(-c3ccc(C(=N)N)cc3)nn2)cn1 [Example 2, 1-[6-(4-Amidino-phenyl)-3-pyridazinyl]-4-(2-methoxy-carbonyl-ethyl)-imidazole]	6.29	5.66	–
N=C(N)c1ccc(-c2ccc(-n3cnc(CCC(=O)O)c3)nn2)cc1 [Example 1]	7.14	6.89	no animals died
N=C(N)c1ccc(-c2ccc(-n3cnc(CC(O)C(=O)O)c3)nn2)cc1 (stereo not drawn) [1(1), 1-[-6-(4-amidinophenyl)-3-pyridazinyl]-4-(2-carboxy-2-hydroxy-ethyl)-imidazole]	7.42	7.05	–
N=C(N)c1ccc(-c2ccc(-n3cc(CCC(=O)O)c4ccccc43)nn2)cc1 [1(37), 1-[6-(4-amidino-phenyl)-3-pyridazinyl]-3-(2-carboxy-ethyl)-indole]	6.82	5.62	–
N=C(N)c1ccc(-c2ccc(-c3n[nH]c(SCC(=O)O)n3)cc2)cc1 [1(39), 3-(4-amidino-4'-biphenylyl)-5-carboxymethylthio-1,2,4-triazole]	7.41	5.43	–
N=C(N)c1ccc(-c2ccc(-c3nnc(CCC(=O)O)s3)cc2)cc1 [1(20), 2-(4-amidino-4'-biphenylyl)-5-(2-carboxy-ethyl)-1,3,4-thiadiazole]	7.19	6.54	–
COC(=O)C(O)Cc1cn(-c2ccc(-c3ccc(C(=N)N)cc3)nn2)cn1 (stereo not drawn) [2(1), 1-[6-(4-amidino-phenyl)-3-pyridazinyl]-4-(2-hydroxy-2-methoxycarbonyl-ethyl)-imidazole]	–	6.74	–
N=C(N)c1ccc(-c2ccc(-n3cnc(CC(C(=O)O)N(Cc4ccccc4)Cc4ccccc4)c3)nn2)cc1 (stereo not drawn) [1(35), 1-[6-(4-amidino-phenyl)-3-pyridazinyl]-4-(2-carboxy-2-dibenzylamino-ethyl)-imidazole]	5.62	5.16	–
COC(=O)c1cc(CCC(=O)O)oc1-c1ccc(-c2ccc(C(=N)N)cc2)cc1 [1(127), 2-(4-amidino-4'-biphenyl)-5-(2-carboxy-ethyl)-3-methoxycarbonyl-furan]	5.60	4.85	–
